Reference: ChEMBL document CHEMBL4507319 (2021)

Legend:
[1] = biological target: T1, Ephrin type-B receptor 2 (Homo sapiens) (UniProt P29323); assay: EphB2(h) Eurofins kinase panel; details: Compound concentration 1.0 uM
T1 sequence (whole entry): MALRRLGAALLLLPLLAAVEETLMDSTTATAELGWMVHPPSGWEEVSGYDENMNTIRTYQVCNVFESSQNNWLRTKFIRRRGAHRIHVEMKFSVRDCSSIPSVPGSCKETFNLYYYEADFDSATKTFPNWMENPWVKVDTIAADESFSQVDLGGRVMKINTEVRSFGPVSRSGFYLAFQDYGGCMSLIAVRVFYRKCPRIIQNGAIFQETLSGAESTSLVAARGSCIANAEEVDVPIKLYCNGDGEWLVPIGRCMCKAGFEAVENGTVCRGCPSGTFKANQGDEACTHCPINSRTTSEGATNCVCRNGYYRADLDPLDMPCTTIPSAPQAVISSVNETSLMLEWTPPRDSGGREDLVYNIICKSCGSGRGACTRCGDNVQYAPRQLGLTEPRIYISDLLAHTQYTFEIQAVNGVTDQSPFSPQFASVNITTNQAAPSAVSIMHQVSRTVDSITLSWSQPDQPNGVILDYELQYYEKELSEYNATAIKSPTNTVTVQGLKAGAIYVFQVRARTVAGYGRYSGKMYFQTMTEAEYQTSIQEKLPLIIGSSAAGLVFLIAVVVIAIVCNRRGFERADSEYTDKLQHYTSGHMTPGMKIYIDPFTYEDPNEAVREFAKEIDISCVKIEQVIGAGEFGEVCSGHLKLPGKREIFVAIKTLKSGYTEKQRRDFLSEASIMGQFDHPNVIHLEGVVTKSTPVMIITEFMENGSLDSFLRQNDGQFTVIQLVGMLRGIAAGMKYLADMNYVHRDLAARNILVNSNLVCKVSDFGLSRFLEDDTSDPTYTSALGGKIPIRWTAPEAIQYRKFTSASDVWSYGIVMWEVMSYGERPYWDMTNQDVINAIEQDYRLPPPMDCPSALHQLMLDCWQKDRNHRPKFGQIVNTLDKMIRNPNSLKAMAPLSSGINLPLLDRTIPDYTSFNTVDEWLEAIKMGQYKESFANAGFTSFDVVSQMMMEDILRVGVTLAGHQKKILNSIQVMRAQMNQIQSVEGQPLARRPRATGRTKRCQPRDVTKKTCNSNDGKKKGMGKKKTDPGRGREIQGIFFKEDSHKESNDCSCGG

SNU-16 = assay: Snu16 cell line Proliferation assay; type: functional, Homo sapiens; details: time 3 day
OCI-Ly7 = assay: Oci-Ly-7 cell line Proliferation assay; type: functional, Homo sapiens; details: time 3 day
[2] = biological target: T2, Myosin-IIIb (Homo sapiens) (UniProt Q8WXR4); assay: MYO3B(h) Eurofins kinase panel; details: Compound concentration 1.0 uM
T2 sequence (whole entry): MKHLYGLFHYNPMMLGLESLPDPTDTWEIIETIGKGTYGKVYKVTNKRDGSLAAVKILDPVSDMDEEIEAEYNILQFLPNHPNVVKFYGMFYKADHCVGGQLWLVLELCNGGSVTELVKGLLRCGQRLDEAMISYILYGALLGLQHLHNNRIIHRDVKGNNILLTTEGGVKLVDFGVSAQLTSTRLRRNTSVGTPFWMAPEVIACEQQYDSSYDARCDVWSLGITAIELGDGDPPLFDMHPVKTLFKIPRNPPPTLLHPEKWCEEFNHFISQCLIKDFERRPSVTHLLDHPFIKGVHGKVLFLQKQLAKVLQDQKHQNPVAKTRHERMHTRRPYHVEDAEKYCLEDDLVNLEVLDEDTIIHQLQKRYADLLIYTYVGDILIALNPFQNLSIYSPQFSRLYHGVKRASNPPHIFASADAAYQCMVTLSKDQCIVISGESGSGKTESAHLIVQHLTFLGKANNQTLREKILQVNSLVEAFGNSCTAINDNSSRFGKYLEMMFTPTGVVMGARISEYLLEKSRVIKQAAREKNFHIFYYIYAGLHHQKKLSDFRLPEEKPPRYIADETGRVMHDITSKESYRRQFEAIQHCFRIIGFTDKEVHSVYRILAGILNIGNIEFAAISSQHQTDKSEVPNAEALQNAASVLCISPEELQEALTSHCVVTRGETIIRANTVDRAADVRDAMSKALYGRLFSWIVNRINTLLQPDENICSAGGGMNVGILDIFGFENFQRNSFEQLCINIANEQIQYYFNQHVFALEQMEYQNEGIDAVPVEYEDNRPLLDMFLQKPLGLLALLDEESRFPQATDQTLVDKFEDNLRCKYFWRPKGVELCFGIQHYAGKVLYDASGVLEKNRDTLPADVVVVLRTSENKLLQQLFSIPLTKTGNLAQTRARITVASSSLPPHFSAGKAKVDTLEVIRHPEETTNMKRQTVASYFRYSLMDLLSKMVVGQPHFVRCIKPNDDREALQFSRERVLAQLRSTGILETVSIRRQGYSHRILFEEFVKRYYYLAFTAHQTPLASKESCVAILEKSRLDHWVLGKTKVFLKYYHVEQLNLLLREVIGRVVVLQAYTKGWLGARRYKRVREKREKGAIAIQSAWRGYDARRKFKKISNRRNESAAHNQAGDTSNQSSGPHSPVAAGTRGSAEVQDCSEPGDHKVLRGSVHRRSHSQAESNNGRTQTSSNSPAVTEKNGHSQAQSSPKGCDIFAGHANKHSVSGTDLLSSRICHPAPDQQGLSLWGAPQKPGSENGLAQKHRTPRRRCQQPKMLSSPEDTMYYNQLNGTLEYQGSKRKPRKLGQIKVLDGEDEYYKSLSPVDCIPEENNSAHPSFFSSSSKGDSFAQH

[3] = biological target: T3, Mitogen-activated protein kinase kinase kinase 2 (Homo sapiens) (UniProt Q9Y2U5); assay: MEKK2(h) Eurofins kinase panel; details: Compound concentration 1.0 uM
T3 sequence (whole entry): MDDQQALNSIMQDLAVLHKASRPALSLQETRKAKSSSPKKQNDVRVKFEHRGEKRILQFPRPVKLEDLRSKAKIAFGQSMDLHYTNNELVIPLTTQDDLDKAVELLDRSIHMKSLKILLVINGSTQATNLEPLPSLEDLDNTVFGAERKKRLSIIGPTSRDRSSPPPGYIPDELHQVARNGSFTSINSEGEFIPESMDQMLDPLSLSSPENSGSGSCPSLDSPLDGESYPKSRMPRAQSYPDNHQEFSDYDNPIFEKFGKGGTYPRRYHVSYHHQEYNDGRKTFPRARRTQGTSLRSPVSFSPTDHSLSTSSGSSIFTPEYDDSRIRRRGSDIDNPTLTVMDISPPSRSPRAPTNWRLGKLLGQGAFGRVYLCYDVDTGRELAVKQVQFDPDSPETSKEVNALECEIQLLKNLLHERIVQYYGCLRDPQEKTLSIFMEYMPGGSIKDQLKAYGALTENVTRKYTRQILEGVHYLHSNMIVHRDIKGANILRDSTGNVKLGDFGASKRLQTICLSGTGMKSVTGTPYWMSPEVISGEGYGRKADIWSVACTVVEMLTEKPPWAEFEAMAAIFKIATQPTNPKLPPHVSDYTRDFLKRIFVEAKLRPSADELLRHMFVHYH

Raji = assay: RAJI cell line Proliferation assay; type: functional, Homo sapiens; details: time 3 day

## CCc1ccccc1C(=O)Nc1n[nH]c2c(C)c(F)c(C3C(C#N)=C(C)N(C)C(C)=C3C#N)cc12 [BAY-3827]
[1]
  % residual kinase activity: 98%
SNU-16
  Cell Proliferation IC50: 11.6 µM
OCI-Ly7
  Cell Proliferation IC50: 12.2 µM
[2]
  % residual kinase activity: 24%
[3]
  % residual kinase activity: 103%
Raji
  Cell Proliferation IC50: >33 µM
